From ChEMBL document CHEMBL3870312, “Rational modification of donepezil as multifunctional acetylcholinesterase inhibitors for the treatment of Alzheimer's disease” (Eur J Med Chem, 2016)

The compounds below were run on Mus musculus (assay: Hepatotoxicity in Kunming mouse assessed as increase in number of inflammatory cells in portal fields of liver at 3 mg/kg, po for 6 days by hematoxylin and eosin-staining based microscopic analysis). Conditions: in vivo, 144 h.
Assay type: toxicity, organism-based

Compound | Activity
CN1[C@@H]2C[C@@H](OC(=O)[C@H](CO)c3ccccc3)C[C@H]1[C@@H]1O[C@H]12 | Non-Toxic

These compounds were tested on Mus musculus (assay: Hepatotoxicity in Kunming mouse assessed as distinct fatty degeneration in hepatocytes at 3 mg/kg, po for 6 days by hematoxylin and eosin-staining based microscopic analysis). Conditions: in vivo, 144 h.
Assay type: toxicity, organism-based

Compound | Activity
CN1[C@@H]2C[C@@H](OC(=O)[C@H](CO)c3ccccc3)C[C@H]1[C@@H]1O[C@H]12 | Non-Toxic

What follows are compounds tested on Mus musculus (assay: Hepatotoxicity in Kunming mouse assessed as area of necrosis in hepatocytes at 3 mg/kg, po for 6 days by hematoxylin and eosin-staining based microscopic analysis). Conditions: 144 h.
Assay type: toxicity, organism-based, Hepatocyte

Compound | Activity
CN1[C@@H]2C[C@@H](OC(=O)[C@H](CO)c3ccccc3)C[C@H]1[C@@H]1O[C@H]12 | Non-Toxic

These compounds were tested against Cholinesterase (Equus caballus, UniProt P81908). Conditions: not given.
Chain of Cholinesterase (Equus caballus, UniProt P81908) (P81908 whole entry): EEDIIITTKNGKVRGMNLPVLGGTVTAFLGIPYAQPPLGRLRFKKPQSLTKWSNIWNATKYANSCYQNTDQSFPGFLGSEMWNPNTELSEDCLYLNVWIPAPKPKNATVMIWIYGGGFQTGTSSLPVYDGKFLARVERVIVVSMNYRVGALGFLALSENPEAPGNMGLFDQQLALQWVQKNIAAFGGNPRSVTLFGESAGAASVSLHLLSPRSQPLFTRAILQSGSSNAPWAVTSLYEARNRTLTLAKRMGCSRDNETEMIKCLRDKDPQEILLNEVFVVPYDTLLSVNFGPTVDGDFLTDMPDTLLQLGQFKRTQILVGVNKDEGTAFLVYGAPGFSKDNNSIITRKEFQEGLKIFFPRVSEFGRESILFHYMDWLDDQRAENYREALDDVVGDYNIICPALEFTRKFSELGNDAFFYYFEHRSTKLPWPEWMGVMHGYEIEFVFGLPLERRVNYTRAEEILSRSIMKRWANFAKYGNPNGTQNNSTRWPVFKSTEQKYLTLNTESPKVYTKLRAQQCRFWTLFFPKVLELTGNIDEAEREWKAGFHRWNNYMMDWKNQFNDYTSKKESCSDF

Compound | IC50 [µM]
COc1cc2c(cc1OC)C(=O)C(CC1CCN(Cc3ccccn3)CC1)C2 (configuration not stated) | 7.83
COc1cc2c(cc1OC)C(=O)C(CC1CCN(Cc3ccccc3C(F)(F)F)CC1)C2 (configuration not stated) | 31.7
COc1cc2c(cc1OC)C(=O)C(CC1CCN(Cc3ccc(F)cc3)CC1)C2 (configuration not stated) | 2.31
COc1cc2c(cc1OC)C(=O)C(CC1CCN(Cc3cccc(Cl)n3)CC1)C2 (configuration not stated) | 31.6
COc1cc2c(cc1OC)C(=O)C(CC1CCN(Cc3cccc(Cl)c3)CC1)C2 (configuration not stated) | 68.9
COc1cc2c(cc1OC)C(=O)C(CC1CCN(Cc3ccccc3Cl)CC1)C2 (configuration not stated) | 3.2

These compounds were tested against Acetylcholinesterase (Electrophorus electricus, UniProt O42275). Conditions: not given.
Chain of Acetylcholinesterase (Electrophorus electricus, UniProt O42275) (O42275 whole entry): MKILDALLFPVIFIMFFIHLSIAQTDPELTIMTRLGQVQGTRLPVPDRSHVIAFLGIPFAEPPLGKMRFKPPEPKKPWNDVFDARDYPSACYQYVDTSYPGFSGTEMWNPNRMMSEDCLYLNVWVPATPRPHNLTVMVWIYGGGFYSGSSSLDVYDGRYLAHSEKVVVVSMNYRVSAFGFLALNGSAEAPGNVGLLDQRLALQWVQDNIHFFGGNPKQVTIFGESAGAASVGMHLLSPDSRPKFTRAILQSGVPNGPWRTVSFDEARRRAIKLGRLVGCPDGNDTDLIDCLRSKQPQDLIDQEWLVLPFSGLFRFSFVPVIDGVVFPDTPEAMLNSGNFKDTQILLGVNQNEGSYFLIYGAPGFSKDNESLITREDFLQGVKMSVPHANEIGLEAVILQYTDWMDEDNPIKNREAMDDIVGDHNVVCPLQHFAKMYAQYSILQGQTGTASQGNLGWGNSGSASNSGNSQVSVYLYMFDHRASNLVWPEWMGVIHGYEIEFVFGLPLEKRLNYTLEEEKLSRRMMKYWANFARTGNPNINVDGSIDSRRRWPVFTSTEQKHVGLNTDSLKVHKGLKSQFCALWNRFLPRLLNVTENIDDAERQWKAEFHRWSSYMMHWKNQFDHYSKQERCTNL

Compound | IC50 [µM]
COc1cc2c(cc1OC)C(=O)C(CC1CCN(Cc3ccccn3)CC1)C2 (configuration not stated) | 1.09
COc1cc2c(cc1OC)C(=O)C(CC1CCN(Cc3ccccc3C(F)(F)F)CC1)C2 (configuration not stated) | 0.7
COc1cc2c(cc1OC)C(=O)C(CC1CCN(Cc3ccc(F)cc3)CC1)C2 (configuration not stated) | 0.13
COc1cc2c(cc1OC)C(=O)C(CC1CCN(Cc3cccc(Cl)n3)CC1)C2 (configuration not stated) | 0.409
COc1cc2c(cc1OC)C(=O)C(CC1CCN(Cc3cccc(Cl)c3)CC1)C2 (configuration not stated) | 0.237
COc1cc2c(cc1OC)C(=O)C(CC1CCN(Cc3ccccc3Cl)CC1)C2 (configuration not stated) | 0.06

The compounds below were run against Acetylcholinesterase (Homo sapiens, UniProt P22303). Conditions: not given.
Chain of Acetylcholinesterase (Homo sapiens, UniProt P22303) (P22303 whole entry): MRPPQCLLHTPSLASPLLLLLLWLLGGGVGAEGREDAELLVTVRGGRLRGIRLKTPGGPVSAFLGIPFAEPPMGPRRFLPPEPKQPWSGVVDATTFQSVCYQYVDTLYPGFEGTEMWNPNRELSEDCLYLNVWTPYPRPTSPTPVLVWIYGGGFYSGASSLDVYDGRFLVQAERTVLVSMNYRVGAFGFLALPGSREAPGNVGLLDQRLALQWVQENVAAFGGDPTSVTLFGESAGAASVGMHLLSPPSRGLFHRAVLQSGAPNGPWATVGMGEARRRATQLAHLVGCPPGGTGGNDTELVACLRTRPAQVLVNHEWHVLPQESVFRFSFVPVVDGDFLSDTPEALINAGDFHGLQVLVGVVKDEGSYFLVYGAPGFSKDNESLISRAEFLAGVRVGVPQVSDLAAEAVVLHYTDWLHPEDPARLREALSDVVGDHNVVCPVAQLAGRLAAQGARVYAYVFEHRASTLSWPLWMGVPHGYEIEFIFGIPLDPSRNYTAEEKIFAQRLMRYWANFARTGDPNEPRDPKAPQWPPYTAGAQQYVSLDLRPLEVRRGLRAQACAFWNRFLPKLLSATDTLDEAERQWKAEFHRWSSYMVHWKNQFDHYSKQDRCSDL

Compound | IC50 [µM]
COc1cc2c(cc1OC)C(=O)C(CC1CCN(Cc3ccccn3)CC1)C2 (configuration not stated) | 0.147
COc1cc2c(cc1OC)C(=O)C(CC1CCN(Cc3ccccc3C(F)(F)F)CC1)C2 (configuration not stated) | 4.87
COc1cc2c(cc1OC)C(=O)C(CC1CCN(Cc3ccc(F)cc3)CC1)C2 (configuration not stated) | 0.041
COc1cc2c(cc1OC)C(=O)C(CC1CCN(Cc3cccc(Cl)n3)CC1)C2 (configuration not stated) | 0.883
COc1cc2c(cc1OC)C(=O)C(CC1CCN(Cc3cccc(Cl)c3)CC1)C2 (configuration not stated) | 0.114
COc1cc2c(cc1OC)C(=O)C(CC1CCN(Cc3ccccc3Cl)CC1)C2 (configuration not stated) | 0.097

These compounds were tested against Cholinesterase (Homo sapiens, UniProt P06276). Conditions: not given.
Chain of Cholinesterase (Homo sapiens, UniProt P06276) (P06276 whole entry): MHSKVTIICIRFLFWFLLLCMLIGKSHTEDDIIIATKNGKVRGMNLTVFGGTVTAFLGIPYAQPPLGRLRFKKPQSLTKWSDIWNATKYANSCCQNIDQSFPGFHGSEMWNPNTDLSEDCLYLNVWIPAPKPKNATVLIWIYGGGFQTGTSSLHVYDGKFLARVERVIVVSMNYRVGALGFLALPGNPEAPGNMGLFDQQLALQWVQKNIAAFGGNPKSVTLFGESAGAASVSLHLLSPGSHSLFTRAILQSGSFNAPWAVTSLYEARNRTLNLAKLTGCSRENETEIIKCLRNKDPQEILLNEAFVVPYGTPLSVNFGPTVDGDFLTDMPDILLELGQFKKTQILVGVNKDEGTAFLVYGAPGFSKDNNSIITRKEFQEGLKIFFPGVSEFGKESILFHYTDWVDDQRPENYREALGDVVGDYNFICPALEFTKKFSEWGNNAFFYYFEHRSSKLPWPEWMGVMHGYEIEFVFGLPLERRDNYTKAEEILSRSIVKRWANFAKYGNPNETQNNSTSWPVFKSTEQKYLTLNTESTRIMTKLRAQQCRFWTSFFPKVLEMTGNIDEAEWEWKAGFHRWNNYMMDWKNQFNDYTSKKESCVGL

Compound | IC50 [µM]
COc1cc2c(cc1OC)C(=O)C(CC1CCN(Cc3ccccn3)CC1)C2 (configuration not stated) | 38.6
COc1cc2c(cc1OC)C(=O)C(CC1CCN(Cc3ccccc3C(F)(F)F)CC1)C2 (configuration not stated) | 41.4
COc1cc2c(cc1OC)C(=O)C(CC1CCN(Cc3ccc(F)cc3)CC1)C2 (configuration not stated) | 8.13
COc1cc2c(cc1OC)C(=O)C(CC1CCN(Cc3cccc(Cl)n3)CC1)C2 (configuration not stated) | 78.7
COc1cc2c(cc1OC)C(=O)C(CC1CCN(Cc3cccc(Cl)c3)CC1)C2 (configuration not stated) | 50.2
COc1cc2c(cc1OC)C(=O)C(CC1CCN(Cc3ccccc3Cl)CC1)C2 (configuration not stated) | 18.8
